Results: patent publication US5279956A, “Activated protein C polypeptides and anti-peptide antibodies, diagnostic methods and systems for inhibiting activated protein C” (The Scripps Research Institute, priority 1991, dated 1994)
pIC50: −log10 of the molar value. No end group written: not given here.

Biological target: T1, APC (Homo sapiens, UniProt P04070)
T1 construct: begins at amino acid residue position 158 and ends at 419; The light chain is 155 amino acid residues in length; tissue Factor IX concentrate from Immuno AG, Vienna; thrombin from Enzyme Research Laboratories
T1 sequence (P04070 212-461): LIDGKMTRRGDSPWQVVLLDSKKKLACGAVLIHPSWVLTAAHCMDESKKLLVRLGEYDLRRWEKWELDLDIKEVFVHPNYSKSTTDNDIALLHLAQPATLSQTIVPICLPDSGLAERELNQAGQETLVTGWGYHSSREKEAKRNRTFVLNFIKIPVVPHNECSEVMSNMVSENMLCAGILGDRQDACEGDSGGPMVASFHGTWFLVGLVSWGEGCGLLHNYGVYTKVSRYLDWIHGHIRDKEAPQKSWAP
T1 sequence (P04070 43-197): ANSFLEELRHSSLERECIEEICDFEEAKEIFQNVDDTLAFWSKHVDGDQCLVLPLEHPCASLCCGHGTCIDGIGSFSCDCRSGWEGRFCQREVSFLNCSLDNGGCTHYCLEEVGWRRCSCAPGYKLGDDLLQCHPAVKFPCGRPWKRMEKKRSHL
Assay: Xa-1-stage coagulation assay of APC anticoagulant activity
Type: biochemical
Method: For testing the inhibition of the synthetic peptides on APC activity described above, Xa-1-stage coagulation assays were also performed as described. See Seegers et al., Thrombosis Res., 13:233-243 (1978); Marlar et al., supra; and Walker et al., J. Biol. Chem. 265:1484-1489 (1990). […] The resulting admixtures were maintained for seven minutes at 37° C. Separate aliquots of peptides maintained under the same conditions in the absence of APC served as controls for the inhibitory effect of synthetic peptides on APC anticoagulant activity. After the maintenance period, 100 μl of NHP and 100 μl of 200 μg/ml of rabbit brain cephalin (Sigma) were admixed into each peptide admixture and maintained for 200 seconds at 37° C. to form pre-coagulation admixtures. In some experiments, Factor VIII deficient plasma (George King Bio-Medical, Inc.) was used in the place of NHP to determine the effect of Factor VIII on the assay system. Coagulation was then initiated by the admixture of 100 μl of 0.62 nM human activated Factor X (Xa) (Enzyme Research Laboratories, Southbend, Ind.) in TBS-BSA containing 30 mM CaCl2 prewarmed to 37° C. to each of the pre-coagulation admixtures.
The time for clot formation was measured by an Electra 700 Automatic Coagulation Timer (Medical Laboratory Automation, Inc., Mount Vernon, N.Y.). Each peptide's effect was determined in duplicate. The results of the inhibition of APC anticoagulant activity by synthetic peptides as measured in Xa-1-stage coagulation assays are described above and are presented as the mean values obtained with […].
Additional assays were performed to compare the specificity of the inhibitory effect of peptide-(390-404) on APC anticoagulant activity. Both APTT and Xa-1-stage assays were performed with peptide-(390-404) and with the same peptide synthesized in the reverse order, peptide-(404-390), at concentrations of the peptides ranging from 0 μM to 40 μM. In APTT assays performed as described above in the presence of NHP, APC was used at a concentration of 2.5 nM. […]

| Substance | effect on APC in Xa1-stage assay (up to 100 μM) | pIC50 | IC90 [µM] |
| --- | --- | --- | --- |
| KRNRTFVLNFIKIPV-NH2 [peptide-(311-325), KRNRTFVLNFIKIPV] | no effect | – | – |
| YGVYTKVSRYLDWIH-NH2 [peptide-(390-404), YGVYTKVSRYLDWIH] | – | 5.30 | 40 |
